Data on eight compounds can be found in patent US20260137736A1, “PROBIOTIC LACTOBACILLUS STRAIN COMPOSITIONS AND APPLICATIONS THEREFOR INCLUDING FOR LEAKY GUT AND INFLAMMATION” (priority 2021, published 2026).

A value given as a limit tells only on which side of the number the result lay.

Assay [1] deals with L. reuteri growth. Description: Antimicrobial susceptibility profiling, broth microdilution MIC against clinically relevant antibiotics (EFSA cut offs). It is filed as cell-based. As to conditions: for Minimum inhibitory concentration (MIC), L. reuteri PTA-126787: strain L. reuteri PTA-126787, two biological replicates; for Minimum inhibitory concentration (MIC), L. reuteri PTA-126788: strain L. reuteri PTA-126788, two biological replicates. The arrangement: unit not given here. How it is done: Antimicrobial susceptibility testing was performed using broth microdilution method, using LSB medium (Mueller Hinton broth containing 5% horse blood) following Clinical and Laboratory Standards Institute (CLSI, 28th edition) guidelines. Two-fold dilutions of the clinically relevant antibiotics (Clindamycin, Chloramphenicol, Erythromycin, Gentamicin, Kanamycin, Streptomycin, Tetracycline and Ampicillin, all purchased from Sigma Aldrich) were prepared in LSB medium. Approximately, 50 μL of 1×10^5 CFUs/mL of the L. reuteri cells were added into each well. “No antibiotic” and “medium” alone controls were included. […], Pseudomonas aeruginosa ATCC 27853, Staphylococcus aureus ATCC 29213, Enterococcus faecalis ATCC 29212, Streptococcus pneumonia ATCC 49619 and Lacticaseibacillus paracasei ATCC 334 were used as quality control organisms. The plates were incubated for 24-48 hours under microaerophilic conditions. […] The strains were classified as susceptible or resistant using the microbiological cut offs established by EFSA (35).
In general terms: In broth dilution the organism is exposed to a series of concentrations in liquid medium.

Assay [2] deals with L. reuteri growth. Conditions: EFSA guideline species cut-off for L. reuteri; cited from earlier work.

As to `CC1(C)S[C@@H]2[C@H](NC(=O)[C@H](N)c3ccccc3)C(=O)N2[C@H]1C(=O)O` [Ampicillin], in the assay with L. reuteri growth [1], the “Minimum inhibitory concentration (MIC), L. reuteri PTA-126787” value was 1 and the “Minimum inhibitory concentration (MIC), L. reuteri PTA-126788” value is 1. In addition, the “EFSA microbiological cut off values for L. reuteri” value (from here on “EFSA microbiological cut off values”) in the assay on L. reuteri growth [2] is on record as 2.
Take `O=C(N[C@H](CO)[C@H](O)c1ccc([N+](=O)[O-])cc1)C(Cl)Cl` [Chloramphenicol]: in the assay with L. reuteri growth [1], the “Minimum inhibitory concentration (MIC), L. reuteri PTA-126787” value stood at 2 and the “Minimum inhibitory concentration (MIC), L. reuteri PTA-126788” value worked out at 2. Also, in the assay with L. reuteri growth [2], the “EFSA microbiological cut off values” value is given as 4.
Take `CCC[C@@H]1C[C@@H](C(=O)N[C@@H]([C@H]2O[C@H](SC)[C@H](O)[C@@H](O)[C@H]2O)[C@H](C)Cl)N(C)C1` [Clindamycin]: in the assay with L. reuteri growth [1], the “Minimum inhibitory concentration (MIC), L. reuteri PTA-126787” value is on record as at least 0.06 and the “Minimum inhibitory concentration (MIC), L. reuteri PTA-126788” value is at least 0.06.
In the case of `CC[C@H]1OC(=O)[C@H](C)[C@@H](O[C@H]2C[C@@](C)(OC)[C@@H](O)[C@H](C)O2)[C@H](C)[C@@H](O[C@@H]2O[C@H](C)C[C@H](N(C)C)[C@H]2O)[C@](C)(O)C[C@@H](C)C(=O)[C@H](C)[C@@H](O)[C@]1(C)O` [Erythromycin], in the assay with L. reuteri growth [1], the “Minimum inhibitory concentration (MIC), L. reuteri PTA-126787” value was 0.12 and the “Minimum inhibitory concentration (MIC), L. reuteri PTA-126788” value was 0.12. The “EFSA microbiological cut off values” value in the assay with L. reuteri growth [2] is 1.
Take `NC[C@H]1O[C@H](O[C@H]2[C@H](O)[C@@H](O[C@H]3O[C@H](CO)[C@@H](O)[C@H](N)[C@H]3O)[C@H](N)C[C@@H]2N)[C@H](O)[C@@H](O)[C@@H]1O` [Kanamycin]: in the assay on L. reuteri growth [1], the “Minimum inhibitory concentration (MIC), L. reuteri PTA-126787” value is 16 and the “Minimum inhibitory concentration (MIC), L. reuteri PTA-126788” value is 16.
`[H]/N=C(/N)N[C@H]1[C@H](O)[C@@H](O)[C@H](O[C@@H]2O[C@@H](C)[C@](O)(C=O)[C@H]2O[C@@H]2O[C@@H](CO)[C@H](O)[C@@H](O)[C@@H]2NC)[C@@H](N/C(N)=N\[H])[C@@H]1O` [Streptomycin]: in the assay on L. reuteri growth [1], the “Minimum inhibitory concentration (MIC), L. reuteri PTA-126787” value came out at 8 and the “Minimum inhibitory concentration (MIC), L. reuteri PTA-126788” value is reported as 8. Besides, the “EFSA microbiological cut off values” value with L. reuteri growth [2] is 64.
With `CN(C)[C@@H]1C(O)=C(C(N)=O)C(=O)[C@@]2(O)C(O)=C3C(=O)c4c(O)cccc4[C@@](C)(O)[C@H]3C[C@@H]12` [Tetracycline], in the assay on L. reuteri growth [1], the “Minimum inhibitory concentration (MIC), L. reuteri PTA-126787” value was 32/64 and the “Minimum inhibitory concentration (MIC), L. reuteri PTA-126788” value is 32/64.
For the compound Gentamicin, in the assay on L. reuteri growth [1], the “Minimum inhibitory concentration (MIC), L. reuteri PTA-126787” value was determined as 1 and the “Minimum inhibitory concentration (MIC), L. reuteri PTA-126788” value was determined as 1. The “EFSA microbiological cut off values” value in the assay with L. reuteri growth [2] is on record as 8.
